Reference: the NIST ThermoML archive (doi:10.1021/je060271a)
Where “and” joins values, the source holds several entries; their conditions need not be identical. Equal entries are not always repeated.

Settings: 343.15 K, Liquid, Vibrating tube method

CCCCCC(=O)OCC(COC(=O)CCCCC)(COC(=O)CCCCC)COC(=O)CCCCC [pentaerythritol tetrahexanoate]
Settings	mass density
398.2 kPa	957.4 kg/m3
398.4 kPa	957.4 kg/m3
399.3 kPa	957.3 kg/m3
399.8 kPa	957.5 kg/m3
400.1 kPa	957.4 kg/m3
400.6 kPa	957.2 kg/m3
400.8 kPa	957.4 kg/m3
401.5 kPa	957.5 kg/m3
402 kPa	957.5 kg/m3
402.4 kPa	957.3 kg/m3
402.9 kPa	957.6 kg/m3
403.4 kPa	957.4 kg/m3
403.9 kPa	957.4 kg/m3
404.3 kPa	957.5 kg/m3
404.8 kPa	957.4 kg/m3
407.4 kPa	957.3 kg/m3
407.9 kPa	957.4 kg/m3
408.6 kPa	957.4 kg/m3
409 kPa	957.3 kg/m3
409.2 kPa	957.4 kg/m3
409.9 kPa	957.3 kg/m3
410.4 kPa	957.3 kg/m3
413 kPa	957.4 kg/m3
413.5 kPa	957.5 kg/m3
413.9 kPa	957.4 kg/m3
414.4 kPa	957.4 kg/m3
414.9 kPa	957.3 kg/m3
415.1 kPa	957.5 kg/m3
418 kPa	957.4 kg/m3
418.5 kPa	957.5 kg/m3
419.6 kPa	957.4 kg/m3
419.8 kPa	957.4 kg/m3
420.3 kPa	957.3 kg/m3
421.3 kPa	957.3 kg/m3
421.5 kPa	957.3 kg/m3
423.4 kPa	957.3 kg/m3
423.9 kPa	957.3 kg/m3
424.1 kPa	957.4 kg/m3
425.1 kPa	957.3 kg/m3
425.5 kPa	957.4 kg/m3
425.7 kPa	957.4 kg/m3
426.2 kPa	957.4 kg/m3
426.7 kPa	957.3 kg/m3
427.2 kPa	957.3 kg/m3
427.9 kPa	957.5 kg/m3
428.4 kPa	957.4 kg/m3
429 kPa	957.5 kg/m3
429.5 kPa	957.4 kg/m3
429.8 kPa	957.5 kg/m3
430.4 kPa	957.5 kg/m3
430.9 kPa	957.4 kg/m3
431.6 kPa	957.4 kg/m3 and 957.5 kg/m3
431.9 kPa	957.5 kg/m3
432.6 kPa	957.4 kg/m3
432.8 kPa	957.5 kg/m3
433 kPa	957.3 kg/m3
435 kPa	957.5 kg/m3
437.5 kPa	957.5 kg/m3
440.8 kPa	957.4 kg/m3
443.6 kPa	957.3 kg/m3
446.3 kPa	957.4 kg/m3
449.5 kPa	957.5 kg/m3
452.2 kPa	957.5 kg/m3
455.6 kPa	957.4 kg/m3
458.5 kPa	957.4 kg/m3
461.8 kPa	957.4 kg/m3
464.6 kPa	957.3 kg/m3
468.2 kPa	957.4 kg/m3
471.5 kPa	957.4 kg/m3
474.8 kPa	957.4 kg/m3
477.4 kPa	957.5 kg/m3
481.3 kPa	957.6 kg/m3
484.6 kPa	957.4 kg/m3
487.7 kPa	957.3 kg/m3
491.5 kPa	957.4 kg/m3
525.8 kPa	957.3 kg/m3
529.4 kPa	957.6 kg/m3
533.4 kPa	957.5 kg/m3
538.1 kPa	957.5 kg/m3
545.9 kPa	957.4 kg/m3
550.2 kPa	957.6 kg/m3
555.3 kPa	957.6 kg/m3
559.3 kPa	957.5 kg/m3
564 kPa	957.5 kg/m3
569 kPa	957.5 kg/m3
573.7 kPa	957.5 kg/m3
578 kPa	957.5 kg/m3
584 kPa	957.6 kg/m3
588.1 kPa	957.6 kg/m3
593 kPa	957.5 kg/m3
603.9 kPa	957.5 kg/m3
609 kPa	957.6 kg/m3
614.9 kPa	957.5 kg/m3
620.1 kPa	957.6 kg/m3
625 kPa	957.5 kg/m3
631.2 kPa	957.5 kg/m3
636.6 kPa	957.6 kg/m3
641.6 kPa	957.6 kg/m3
647 kPa	957.7 kg/m3
653.6 kPa	957.6 kg/m3
659.4 kPa	957.5 kg/m3
666.5 kPa	957.5 kg/m3
672.6 kPa	957.7 kg/m3
678.3 kPa	957.5 kg/m3
684.7 kPa	957.7 kg/m3
691 kPa	957.6 kg/m3
697.2 kPa	957.5 kg/m3
704.9 kPa	957.6 kg/m3
711.5 kPa	957.6 kg/m3
719.3 kPa	957.5 kg/m3
725.9 kPa	957.6 kg/m3
732.7 kPa	957.6 kg/m3
739.6 kPa	957.6 kg/m3
747.6 kPa	957.6 kg/m3
786 kPa	957.7 kg/m3
793.7 kPa	957.6 kg/m3
801.8 kPa	957.7 kg/m3
809.8 kPa	957.8 kg/m3
818 kPa	957.6 kg/m3
828.1 kPa	957.7 kg/m3
836.4 kPa	957.7 kg/m3
845.3 kPa	957.6 kg/m3
855.7 kPa	957.8 kg/m3
864.5 kPa	957.8 kg/m3
873.7 kPa	957.7 kg/m3
883.3 kPa	957.6 kg/m3
894.6 kPa	957.6 kg/m3
904.5 kPa	957.9 kg/m3
915.8 kPa	957.7 kg/m3
967 kPa	957.8 kg/m3
977.1 kPa	957.8 kg/m3
989.1 kPa	957.8 kg/m3
999.5 kPa	957.8 kg/m3
1011.5 kPa	957.9 kg/m3
1022.2 kPa	957.7 kg/m3
1032.7 kPa	958 kg/m3
1043.4 kPa	957.9 kg/m3
1053.7 kPa	957.9 kg/m3
1066.4 kPa	958 kg/m3
1076.6 kPa	957.9 kg/m3
1087.5 kPa	957.9 kg/m3
1100.4 kPa	957.8 kg/m3
1110.6 kPa	958 kg/m3
1121.6 kPa	957.9 kg/m3
1134.6 kPa	957.9 kg/m3
1280.5 kPa	958.2 kg/m3
1295.1 kPa	958.1 kg/m3
1307.6 kPa	958.1 kg/m3
1320.1 kPa	958.1 kg/m3
1332.9 kPa	958.2 kg/m3
1348.2 kPa	958.2 kg/m3
1414.9 kPa	958.2 kg/m3
1428.2 kPa	958.2 kg/m3
1444 kPa	958.2 kg/m3
1457.4 kPa	958.2 kg/m3
1470.4 kPa	958.2 kg/m3
1483.5 kPa	958.1 kg/m3
1513.7 kPa	958.3 kg/m3
1557.9 kPa	958.3 kg/m3
1571.7 kPa	958.3 kg/m3
1588.7 kPa	958.4 kg/m3
1603.1 kPa	958.4 kg/m3
1617.5 kPa	958.4 kg/m3
1697.7 kPa	958.3 kg/m3
1713.1 kPa	958.5 kg/m3
1728.4 kPa	958.5 kg/m3
1747.5 kPa	958.3 kg/m3
1763.5 kPa	958.4 kg/m3
1779.3 kPa	958.3 kg/m3
1795.9 kPa	958.4 kg/m3
1815 kPa	958.5 kg/m3
1831.3 kPa	958.5 kg/m3
1848.3 kPa	958.5 kg/m3
1865 kPa	958.4 kg/m3
1884.9 kPa	958.5 kg/m3
1902.5 kPa	958.6 kg/m3
1920.5 kPa	958.6 kg/m3
1937.8 kPa	958.6 kg/m3
1958.6 kPa	958.5 kg/m3
1976.1 kPa	958.6 kg/m3
1993.6 kPa	958.7 kg/m3
2012 kPa	958.6 kg/m3
2033.4 kPa	958.6 kg/m3
2051.6 kPa	958.6 kg/m3
2070.2 kPa	958.9 kg/m3
2092.2 kPa	958.6 kg/m3
2363.6 kPa	958.8 kg/m3
2384.2 kPa	958.9 kg/m3
2409 kPa	959 kg/m3
2429.7 kPa	959 kg/m3
2451.3 kPa	959 kg/m3
2477.2 kPa	959.1 kg/m3
2710.1 kPa	959.1 kg/m3
2733 kPa	959.1 kg/m3
2756.2 kPa	959.1 kg/m3
2778.8 kPa	959.3 kg/m3
2805.7 kPa	959.1 kg/m3
2828.2 kPa	959.3 kg/m3
2850.2 kPa	959.4 kg/m3
2877.4 kPa	959.2 kg/m3
2900.2 kPa	959.2 kg/m3
2971.9 kPa	959.4 kg/m3
2994.1 kPa	959.4 kg/m3
3021 kPa	959.5 kg/m3
3043.4 kPa	959.5 kg/m3
3066.1 kPa	959.4 kg/m3
3093.1 kPa	959.5 kg/m3
3115.3 kPa	959.5 kg/m3
3138.2 kPa	959.4 kg/m3
3165.6 kPa	959.5 kg/m3
3188.6 kPa	959.5 kg/m3
3212 kPa	959.6 kg/m3
3235.3 kPa	959.5 kg/m3
3263.5 kPa	959.6 kg/m3
3286.6 kPa	959.7 kg/m3
3314.6 kPa	959.6 kg/m3
3338.4 kPa	959.7 kg/m3
3362.1 kPa	959.6 kg/m3
3386.4 kPa	959.6 kg/m3
3410.3 kPa	959.6 kg/m3
3439.1 kPa	959.8 kg/m3
3463 kPa	959.8 kg/m3
3486.9 kPa	959.8 kg/m3
3514.8 kPa	959.7 kg/m3
3538.6 kPa	959.8 kg/m3
3563 kPa	959.8 kg/m3
3592.3 kPa	959.9 kg/m3
3616.2 kPa	960 kg/m3
3640.6 kPa	959.9 kg/m3
3665.4 kPa	959.8 kg/m3
3695 kPa	959.9 kg/m3
3719.3 kPa	959.8 kg/m3
3743.2 kPa	960 kg/m3
3768 kPa	960 kg/m3
3796.7 kPa	960 kg/m3
3821.2 kPa	960 kg/m3
4008.1 kPa	960.2 kg/m3
4035.6 kPa	960.1 kg/m3
4062.6 kPa	960.2 kg/m3
4089.1 kPa	960.2 kg/m3
4120.6 kPa	960.3 kg/m3
4147.6 kPa	960.4 kg/m3
4174.5 kPa	960.3 kg/m3
4201.5 kPa	960.3 kg/m3
4234.2 kPa	960.2 kg/m3
4261.2 kPa	960.4 kg/m3
4288.4 kPa	960.4 kg/m3
4316.6 kPa	960.4 kg/m3
4350.4 kPa	960.4 kg/m3
4378.3 kPa	960.5 kg/m3
4414.7 kPa	960.4 kg/m3
4437.5 kPa	960.5 kg/m3
4465.6 kPa	960.6 kg/m3
4499.5 kPa	960.5 kg/m3
4528.1 kPa	960.6 kg/m3
4557.2 kPa	960.6 kg/m3
4592.3 kPa	960.7 kg/m3
4621.6 kPa	960.6 kg/m3
4656.7 kPa	960.6 kg/m3
4686.5 kPa	960.7 kg/m3
4715.9 kPa	960.6 kg/m3
4751.9 kPa	960.8 kg/m3
4781.7 kPa	960.8 kg/m3
4812.3 kPa	960.7 kg/m3
4843.3 kPa	960.8 kg/m3
4880.7 kPa	960.9 kg/m3
4911.1 kPa	960.8 kg/m3
4942.3 kPa	961 kg/m3
4973.8 kPa	960.9 kg/m3
5010.3 kPa	960.9 kg/m3
5041.6 kPa	960.9 kg/m3
5073.3 kPa	961 kg/m3
5110.1 kPa	961 kg/m3
5141.5 kPa	960.9 kg/m3
5173.8 kPa	961 kg/m3
5212.2 kPa	961.1 kg/m3
5245.4 kPa	961.1 kg/m3
5277.4 kPa	961.2 kg/m3
5309.8 kPa	961.2 kg/m3
5348.9 kPa	961.2 kg/m3
5381.6 kPa	961.3 kg/m3
5415.2 kPa	961.3 kg/m3
5454.8 kPa	961.2 kg/m3
5488.1 kPa	961.3 kg/m3
5521.5 kPa	961.3 kg/m3
5555.1 kPa	961.3 kg/m3
5594.9 kPa	961.4 kg/m3
5627.9 kPa	961.3 kg/m3
5662.1 kPa	961.3 kg/m3
